{"source": "patent US4774259A", "about": "“Phenylalanine derivatives and uses thereof” (Ajinomoto Co., Inc., priority 1985, dated 1988)", "key": {"[1]": {"assay": "Absorption promoting test of insulin, oral, mice (Example 3): blood glucose value", "format": "in vivo, female ICR-CDI mice", "conditions": "for decrease in the blood glucose value (in words): oral with insulin, compared with a control group", "method": "A test for the promotion of the absorption of insulin was carried out upon the above-described absorption promoters and upon two known absorption promoting agents. Thus, insulin in a prescribed dose (23.3 unit/mg) and the absorption promoter, as given in the Table below, were dissolved or suspended in a 0.05M phosphate buffer. Then groups of five female ICR-CDI mice, 6 to 7 weeks old, which had not been fed for 18 hours, were orally administered with the predetermined buffer solution (0.5 ml). A predetermined time later, the blood glucose value of each group of mice was determined."}, "[2]": {"test_system": "male ICR mice", "assay": "Toxicity test, oral LD50, mice (Example 4)", "format": "in vivo", "conditions": "compared with known absorption promoting agents", "method": "Predetermined amounts of the absorption promoters listed in the Table were each suspended in 0.5% CMC sodium salt solution. Groups of ten male ICR mice, 4 weeks old, were orally administered with the suspension. Two weeks thereafter, the LD50 values were determined."}, "[3]": {"assay": "Absorption promoting test of insulin, oral, mice (Example 7): blood glucose and immunoreactive insulin", "format": "in vivo, female ICR-CDl mice", "conditions": "for Decrease in Blood Glucose / Degree of increase of Blood Insulin: insulin 0.5 unit/10 g, promoter 3 mg/10 g, oral, compared with phosphate buffer control; for effect on decreasing the blood glucose value and increasing the blood insulin level (in words): oral with insulin", "method": "A test for the absorption of insulin was carried out with absorption promoters of the present invention. Thus, insulin (0.5 unit/10 g weight) and the absorption promoter (3 mg/10 g weight) were suspended in a 0.05M phosphate buffer. Then the group of five female ICR-CDl mice, 5 to 7 weeks old, which were fasted for 18 hours, were orally administered with the prepared suspension.\nThe blood glucose value and the immunoreactive insulin level of each group of mice were determined at the fixed time.\nThe percent decrease in blood glucose and the degree of increase of blood insulin as compared with a phosphate buffer control group were shown in Table 2."}}, "data": [{"smiles": "O=C(N[C@@H](Cc1ccccc1)C(=O)O)C(F)=Cc1ccccc1", "note": "[N-(α-fluorocinnamoyl)-L-phenylalanine]", "values": [{"measurement": "decrease in the blood glucose value (in words)", "setting": "[1]", "result": "small"}]}, {"smiles": "Cc1ccc(C=C(F)C(=O)N[C@@H](Cc2ccccc2)C(=O)O)cc1", "note": "[N-(α-fluoro-4-methylcinnamoyl)-L-phenylalanine]", "values": [{"measurement": "decrease in the blood glucose value (in words)", "setting": "[1]", "result": "excellent effect in decreasing the blood glucose value"}, {"measurement": "LD50 value (in words)", "setting": "[2]", "result": "excellent LD50 value"}]}, {"smiles": "Cc1ccc(C(Cl)=CC(=O)N[C@H](Cc2ccccc2)C(=O)O)cc1", "note": "[N-(β-chloro-4-methylcinnamoyl)-D-phenylalanine]", "values": [{"measurement": "Decrease in Blood Glucose", "setting": "[3]; 15 minutes", "result": 35.7, "unit": "%"}, {"measurement": "Degree of increase of Blood Insulin", "setting": "[3]; 15 minutes", "result": 2.1}, {"measurement": "Decrease in Blood Glucose", "setting": "[3]; 30 minutes", "result": 47.8, "unit": "%"}, {"measurement": "Degree of increase of Blood Insulin", "setting": "[3]; 30 minutes", "result": 3.3}, {"measurement": "Decrease in Blood Glucose", "setting": "[3]; 60 minutes", "result": 42.8, "unit": "%"}, {"measurement": "Degree of increase of Blood Insulin", "setting": "[3]; 60 minutes", "result": 1.0}, {"measurement": "effect on decreasing the blood glucose value and increasing the blood insulin level (in words)", "setting": "[3]", "result": "excellent effect on decreasing the blood glucose value and increasing the blood insulin level"}]}, {"smiles": "Cc1ccc(C(Cl)=CC(=O)N[C@@H](Cc2ccccc2)C(=O)O)cc1", "note": "[N-(β-chloro-4-methylcinnamoyl)-L-phenylalanine]", "values": [{"measurement": "Decrease in Blood Glucose", "setting": "[3]; 15 minutes", "result": 42.1, "unit": "%"}, {"measurement": "Degree of increase of Blood Insulin", "setting": "[3]; 15 minutes", "result": 10.5}, {"measurement": "Decrease in Blood Glucose", "setting": "[3]; 30 minutes", "result": 21.6, "unit": "%"}, {"measurement": "Degree of increase of Blood Insulin", "setting": "[3]; 30 minutes", "result": 2.0}, {"measurement": "Decrease in Blood Glucose", "setting": "[3]; 60 minutes", "result": 12.1, "unit": "%"}, {"measurement": "Degree of increase of Blood Insulin", "setting": "[3]; 60 minutes", "result": 2.1}, {"measurement": "effect on decreasing the blood glucose value and increasing the blood insulin level (in words)", "setting": "[3]", "result": "excellent effect on decreasing the blood glucose value and increasing the blood insulin level"}]}, {"smiles": "Cc1ccc(C=CC(=O)N[C@@H](Cc2ccccc2)C(=O)O)cc1", "note": "[N-(4-methylcinnamoyl)-L-phenylalanine]", "values": [{"measurement": "Blood Glucose", "setting": "[1]; insulin 50 unit/kg, absorption promoter 150 mg/kg, oral, 30 minutes, control 82.4 ± 8.1", "result": "78.0 ± 7.8", "unit": "mg/dL"}, {"measurement": "decrease in the blood glucose value (in words)", "setting": "[1]", "result": "small"}]}, {"smiles": "Cc1ccc(C=C(F)C(=O)N[C@H](Cc2ccccc2)C(=O)O)cc1", "note": "[N-(α-fluoro-4-methylcinnamoyl)-D-phenylalanine]", "values": [{"measurement": "decrease in the blood glucose value (in words)", "setting": "[1]", "result": "excellent effect in decreasing the blood glucose value"}, {"measurement": "LD50 value (in words)", "setting": "[2]", "result": "excellent LD50 value"}]}]}
